Reference: patent US6642241B1, “Alkylamino-substituted bicyclic nitrogen heterocycles” (Syntex (U.S.A.) LLC, priority 1999, dated 2003)
Counter-ions that a name gives are not always drawn.

`COCCN1C(=O)N(c2ccccc2Cl)Cc2cnc(NC(C)C)nc21` (as salt: hydrochloride) [Example 2b, 3-(2-chloro-phenyl)-1-(2-methoxy-ethyl)-7-isopropylamino-3,4-dihydropyrimido[4,5-d]pyrimidin-2(1H)-one] showed a melting point of 126 to 131.6 °C. With `CCOC(=O)CN1C(=O)N(c2ccccc2Cl)Cc2cnc(NC(C)C)nc21` [Example 1d, 3-(2-chloro-phenyl)-1-ethoxycarbonylmethyl-7-isopropylamino-3,4-dihydropyrimido[4,5-d]pyrimidin-2(1H)-one] the melting point was 188.8 to 191.4 °C. In the case of `CC(C)Nc1ncc2c(n1)N(CC(=O)O)C(=O)N(c1ccccc1Cl)C2` [Example 1e, 3-(2-chloro-phenyl)-1-carboxymethyl-7-isopropylamino-3,4-dihydropyrimido[4,5-d]pyrimidin-2(1H)-one], the melting point is reported as 172 to 188 °C.
